Data set [1] has as its target T1, alpha2B adrenergic receptors (Homo sapiens, UniProt P18089).
T1 construct: expressed in transfected cells; host or cells: NIH-3T3
T1 sequence (P18089 1-450): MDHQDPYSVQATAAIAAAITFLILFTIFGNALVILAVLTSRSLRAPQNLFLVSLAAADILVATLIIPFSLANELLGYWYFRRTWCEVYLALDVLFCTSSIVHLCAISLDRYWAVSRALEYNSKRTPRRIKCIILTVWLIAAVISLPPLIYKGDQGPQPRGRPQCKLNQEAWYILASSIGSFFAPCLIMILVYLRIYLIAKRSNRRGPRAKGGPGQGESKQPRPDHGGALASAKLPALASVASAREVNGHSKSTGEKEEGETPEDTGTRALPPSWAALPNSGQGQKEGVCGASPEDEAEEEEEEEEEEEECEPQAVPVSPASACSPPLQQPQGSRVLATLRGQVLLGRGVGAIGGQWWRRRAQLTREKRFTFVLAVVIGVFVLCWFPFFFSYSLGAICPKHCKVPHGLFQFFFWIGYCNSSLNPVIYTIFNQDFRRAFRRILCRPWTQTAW
The experiment in a line: Receptor Selection and Amplification Technology (RSAT) assay, alpha2B. The data set is classed as cell-based. The note with it: for EC50: NA = not active at concentrations less than 10 micromolar, read-out: Alpha 2B EC50; for Alpha 2B intrinsic activity: fraction of maximal effect of standard full agonist brimonidine (UK14304). The procedure, abridged:
(§1)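 NIH-3T3 cells cotransfected with receptor, Gq/i5 and β-galactosidase were incubated with drugs in triplicate for 72-96 hr at 37 °C; proliferation read as β-galactosidase activity (o-nitrophenyl-β-D-galactopyranoside, OD 420 nm).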

Data set [2] deals with T2, alpha2C adrenergic receptors (Homo sapiens, UniProt P18825).
T2 construct: expressed in transfected cells; host or cells: NIH-3T3
T2 sequence (P18825 1-462): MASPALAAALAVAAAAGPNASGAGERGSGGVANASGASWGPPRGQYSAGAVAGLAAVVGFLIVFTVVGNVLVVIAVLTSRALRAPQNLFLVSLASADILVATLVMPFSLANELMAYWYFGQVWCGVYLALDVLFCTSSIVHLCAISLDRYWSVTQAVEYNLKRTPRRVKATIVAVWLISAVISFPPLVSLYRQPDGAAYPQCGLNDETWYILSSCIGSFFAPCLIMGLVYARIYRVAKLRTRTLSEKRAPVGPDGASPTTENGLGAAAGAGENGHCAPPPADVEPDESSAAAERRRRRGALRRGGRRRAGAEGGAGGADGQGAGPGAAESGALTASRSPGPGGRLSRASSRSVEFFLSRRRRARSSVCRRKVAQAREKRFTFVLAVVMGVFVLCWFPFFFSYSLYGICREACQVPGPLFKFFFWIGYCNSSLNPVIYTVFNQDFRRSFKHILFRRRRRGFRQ
The experiment in a line: Receptor Selection and Amplification Technology (RSAT) assay, alpha2C. The data set is classed as cell-based. The note with it: for EC50: NA = not active at concentrations less than 10 micromolar, read-out: Alpha 2C EC50; for Alpha 2C intrinsic activity: fraction of maximal effect of standard full agonist brimonidine (UK14304). Summed up: as §1

The subject of data set [3] is male Sprague-Dawley rats. The experiment in a line: Sedative activity (exploratory behavior). The data set is classed as in vivo, rat. The following applies: intraperitoneally, up to a dose of 1 mg/kg. Here is the method: To test sedation, six male Sprague-Dawley rats are given up to 3 mg/kg of the test compound in a saline or DMSO vehicle by intraperitoneal injection (i.p.). Sedation is graded 30 minutes following administration of the drug by monitoring locomotor skills as follows.
The Sprague-Dawley rats are weighed and 1 ml/kg body weight of an appropriate concentration (ie. 3 mg/ml for a final dose of 3 mg/kg) drug solution is injected intraperitoneally. Typically the test compound is formulated in approximately 10 to 50% DMSO. The results are compared to controls that are injected with 1 ml/kg saline or 10 to 50% DMSO. Rat activity is then determined 30 minutes after injection of the drug solution. Rats are placed in a dark covered chamber and a digicom analyzer (Omnitech Electronic) quantitates their exploratory behavior for a five-minute period. The machine records each time the rat interrupts an array of 32 photoelectric beams in the X and Y orientation.

Data set [4] relates to rats with ligated L5 and L6 spinal nerves. The experiment in a line: Chung model of neuropathic pain (tactile allodynia, von Frey hairs). The data set is classed as in vivo. The note with it: Rattus norvegicus, 0.5 h, 30 min following drug administration, read-out: % Pain Reversal ± SEM; for inhibition in vivo at 0.001 mg/kg: 1 μg/kg i.p.; for inhibition in vivo at 0.003 mg/kg: 3 μg/kg i.p. From the text: A model in accordance with Kim and Chung 1992, Pain […], pp 355-363 (Chung model), for chronic pain (in particular peripheral neuropathy) involves the surgical ligation of the L5 (and optionally the L6) spinal nerves on one side in experimental animals. Rats recovering from the surgery gain weight and display a level of general activity similar to that of normal rats. However, these rats develop abnormalities of the foot, wherein the hindpaw is moderately everted and the toes are held together. More importantly, the hindpaw on the side affected by the surgery appears to become sensitive to pain from low-threshold mechanical stimuli, such as that producing a faint sensation of touch in a human, within about 1 week following surgery. This sensitivity to normally non-painful touch is called “tactile allodynia” and lasts for at least two months. The response includes lifting the affected hindpaw to escape from the stimulus, licking the paw and holding it in the air for many seconds. None of these responses is normally seen in the control group.
Rats are anesthetized before surgery. The surgical site is shaved and prepared either with betadine or Novacaine. Incision is made from the thoracic vertebra Xlll down toward the sacrum. Muscle tissue is separated from the spinal vertebra (left side) at the L4-S2 levels. The L6 vertebra is located and the transverse process is carefully removed with a small rongeur to expose the L4-L6 spinal nerves. The L5 and L6 spinal nerves are isolated and tightly ligated with 6-0 silk thread. The same procedure is done on the right side as a control, except no ligation of the spinal nerves is performed.
A complete hemostasis is confirmed, then the wounds are sutured. A small amount of antibiotic ointment is applied to the incised area, and the rat is transferred to the recovery plastic cage under a regulated heat-temperature lamp. On the day of the experiment, at least seven days after the surgery, typically six rats per test group are administered the test drugs by intraperitoneal (i.p.) injection or oral gavage. For i.p. injection, the compounds are formulated in approximately 10 to 50% DMSO and given in a volume of 1 ml/kg body weight.
Tactile allodynia is measured prior to and 30 minutes after drug administration using von Frey hairs that are a series of fine hairs with incremental differences in stiffness. Rats are placed in a plastic cage with a wire mesh bottom and allowed to acclimate for approximately 30 minutes. The von Frey hairs are applied perpendicularly through the mesh to the mid-plantar region of the rats' hindpaw with sufficient force to cause slight buckling and held for 6-8 seconds. The applied force has been calculated to range from 0.41 to 15.1 grams. If the paw is sharply withdrawn, it is considered a positive response. A normal animal will not respond to stimuli in this range, but a surgically ligated paw will be withdrawn in response to a 1-2 gram hair. The 50% paw withdrawal threshold is determined using the method of Dixon, W. J., Ann. Rev. Pharmacol. Toxicol. 20:441-462 (1980). The post-drug threshold is compared to the pre-drug threshold and the percent reversal of tactile sensitivity is calculated based on a normal threshold of 15.1 grams. The results are expressed in percent (%) MPE, where the MPE value reflects the percentage reversal of pain threshold to that of a normal animal (100%). Table 3 below indicates results of this test with Compounds 1, 7 and 29 of the invention, administered i.p. and in oral doses.

Each structure is given as a SMILES string. Where two headings read alike, the source gives them in different places.

For `CCC1=CC(Cc2c[nH]c(=S)[nH]2)CC1` (stereo not shown), in data set [1], the EC50 is 750 nM and the “Alpha 2B intrinsic activity” value came to 0.49. Moreover, in data set [2], the EC50 was greater than 2000 nM and the “Alpha 2C intrinsic activity” value came to 0.32.
For `S=c1[nH]cc(C[C@@H]2CCc3ccccc32)[nH]1`, in that order: 24.5 nM, 0.97, 630 nM and 0.61.
For `S=c1[nH]cc(CC2CCC=C2Cl)[nH]1` (stereo not shown), in that order: 28 nM, 0.9, 116 nM and 0.55.
Turning to `CC1=C(Br)C(Cc2c[nH]c(=S)[nH]2)CC1` (stereo not shown), in data set [1], the EC50 came out at 27 nM and the “Alpha 2B intrinsic activity” value worked out at 0.95. In addition, in data set [2], the EC50 turned out to be 139 nM and the “Alpha 2C intrinsic activity” value stood at 0.48.
As to `O=C1c2ccccc2CCC1Cc1c[nH]c(=S)[nH]1` (single isomer, unassigned) [Compound 23, 2-(2-thioxo-2,3-dihydro-1H-imidazol-4-ylmethyl)-3,4-dihydro-2H-naphthalen-1-one], the sedative effect result in data set [3] is “no sedative effect”. Also, in data set [4] (ip), the inhibition in vivo at 0.001 mg/kg came to 0.7 ± 0.8% and the inhibition in vivo at 0.003 mg/kg amounted to 59 ± 5.8%. Also, the inhibition in vivo at 0.01 mg/kg in data set [4] (ip, 10 μg/kg i.p.) came out at 74 ± 6.1%. For the same compound, in data set [4] (ip, 30 μg/kg i.p.), the inhibition in vivo at 0.03 mg/kg was found to be 69 ± 10%.
Take `S=c1[nH]cc(CC2CCC3=C2CCC3)[nH]1` (stereo not shown) [Compound 1, 4-(1,2,3,4,5,6-hexahydro-pentalen-1-ylmethyl)-1,3-dihydro-imidazole-2-thione]: the inhibition in vivo at 0.03 mg/kg in data set [4] (ip, 30 μg/kg i.p.) stood at 9 ± 2%. Moreover, the inhibition in vivo at 0.1 mg/kg worked out at 13 ± 2% in data set [4] (ip, 100 μg/kg i.p.) and 29 ± 5% in data set [4] (po, 100 μg/kg p.o.). For the same compound, the inhibition in vivo at 1 mg/kg in data set [4] (ip, 1000 μg/kg i.p.) stood at 44 ± 7%.
For the compound `S=c1[nH]cc(CC2CCc3ccccc32)[nH]1` (stereo not shown) [Compound 7, 4-indan-1-ylmethyl-1,3-dihydro-imidazole-2-thione], the inhibition in vivo at 0.001 mg/kg in data set [4] (ip) turned out to be 1 ± 1%. The inhibition in vivo at 0.003 mg/kg in data set [4] (ip) was 23 ± 4%. Also, the inhibition in vivo at 0.01 mg/kg in data set [4] (ip, 10 μg/kg i.p.) was 58 ± 8%; in data set [4] (po, 10 μg/kg p.o.), 1 ± 1%. Further, the inhibition in vivo at 0.03 mg/kg in data set [4] (ip, 30 μg/kg i.p.) was determined as 85 ± 6%; in data set [4] (po, 30 μg/kg p.o.) it was 56 ± 10%. In addition, the inhibition in vivo at 0.1 mg/kg in data set [4] (ip, 100 μg/kg i.p.) was 89 ± 7%; in data set [4] (po, 100 μg/kg p.o.), 58 ± 8%. For the same compound, the inhibition in vivo at 0.3 mg/kg in data set [4] (po, 300 μg/kg p.o.) was 61 ± 6%.
`S=c1[nH]cc(CC2CCc3sccc3C2)[nH]1` (stereo not shown) [Compound 29, 4-(4,5,6,7-tetrahydro-benzo[b]thiophen-5-ylmethyl)-1,3-dihydro-imidazole-2-thione]: the inhibition in vivo at 0.01 mg/kg in data set [4] (ip, 10 μg/kg i.p.) came out at 17 ± 3%. Also, the inhibition in vivo at 0.03 mg/kg in data set [4] (ip, 30 μg/kg i.p.) turned out to be 61 ± 11%. The inhibition in vivo at 0.1 mg/kg in data set [4] (ip, 100 μg/kg i.p.) stood at 14 ± 2%.
On to `O=c1[nH]cc(CC2CCC3=C2CCC3)[nH]1` (stereo not shown) [Compound 41, 4-(1,2,3,4,5,6-Hexahydro-pentalen-1-ylmethyl)-1,3-dihydro-imidazol-2-one], for which the inhibition in vivo at 0.01 mg/kg in data set [4] (ip, 10 μg/kg i.p.) was found to be 3 ± 1.6%. Further, the inhibition in vivo at 0.03 mg/kg in data set [4] (ip, 30 μg/kg i.p.) came out at 71 ± 2.8%. The inhibition in vivo at 0.1 mg/kg in data set [4] (ip, 100 μg/kg i.p.) turned out to be 13 ± 1%.
Regarding `CC1=C(C)C(Cc2c[nH]c(=O)[nH]2)CC1` (stereo not shown) [Compound 44, 4-(2,3-dimethyl-cyclopent-2-enylmethyl)-1,3-dihydro-imidazol-2-one], in data set [4] (ip), the inhibition in vivo at 0.001 mg/kg was 0.5 ± 2.9% and the inhibition in vivo at 0.003 mg/kg is 24 ± 4.6%. The inhibition in vivo at 0.01 mg/kg in data set [4] (ip, 10 μg/kg i.p.) was found to be 46 ± 9.1%. Besides, the inhibition in vivo at 0.03 mg/kg in data set [4] (ip, 30 μg/kg i.p.) came out at 62 ± 9.6%. For the same compound, in data set [4] (ip, 100 μg/kg i.p.), the inhibition in vivo at 0.1 mg/kg was determined as 82 ± 5.8%.
For the compound `O=c1[nH]cc(C[C@H]2CCc3cc(F)ccc32)[nH]1` [Compound 61, R-(+)-4-(5-fluoro-indan-1-ylmethyl)-1,3-dihydro-imidazol-2-one], the sedative effect entry in data set [3] is “no sedative effect”.
Turning to `S=c1[nH]cc(CC2CCC3=C2CCC3)[nH]1` (stereo not shown) [drawing 15], in data set [1], the EC50 turned out to be 5 nM and the “Alpha 2B intrinsic activity” value is 0.87. In addition, in data set [2], the EC50 was found to be 110 nM and the “Alpha 2C intrinsic activity” value turned out to be 0.43.
In the case of `S=c1[nH]cc(CC2CCc3ccccc32)[nH]1` (stereo not shown) [drawing 16], in data set [1], the EC50 is 10 nM and the “Alpha 2B intrinsic activity” value came out at 0.91. Further, in data set [2], the EC50 worked out at 182 nM and the “Alpha 2C intrinsic activity” value is on record as 0.57.
For `S=c1[nH]cc(CC2CC=CC2)[nH]1` [drawing 24], in that order: 24 nM, 0.85, 180 nM and 0.51.

The record behind these values is US7323485B2, “4-(substituted cycloalkylmethyl) imidazole-2-thiones, 4-(substituted cycloalkenylmethyl) imidazole-2-thiones, 4-(substituted cycloalkylmethyl) imidazol-2-ones and 4-(substituted cycloalkenylmethyl) imidazol-2-ones and related compounds” (Allergan, Inc., priority 2002, dated 2008).
